# Assay results taken from the supplement of paper PMC11061612.
# Assays:
# Assay in all cases: Bliss excess, mean over the matrix (fraction); higher = more synergy
# CAL-78 (Chondrosarcoma) = test system: CAL-78 (Chondrosarcoma)
# Outline: (§1)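 Bliss excess equals the observed combination effect minus the expected value EA + EB − EA·EB, where EA and EB are the effects of each agent alone. Combination Emax is the second-highest inhibition within the matrix. Inhibition was scaled from CellTiter-Glo 2.0 luminescence, with 0 set by vehicle wells and 1 by blank wells, after 72 hours of two-drug dosing of cells plated in 1536-well plates.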
# [1] = test system: CFPAC-1 (Pancreatic Carcinoma)
# Outline: as §1
# [2] = test system: COR-L23 (Non-Small Cell Lung Carcinoma)
# Outline: as §1
# [3] = test system: COR-L95 (Small Cell Lung Carcinoma)
# Outline: as §1
# [4] = test system: CTV-1 (T-Lymphoblastic Leukemia)
# Outline: as §1
# [5] = test system: HCC2157 (Breast Carcinoma)
# Outline: as §1
# [6] = test system: HT-29 (Colorectal Carcinoma)
# Outline: as §1
# IGR-1 (Melanoma) = test system: IGR-1 (Melanoma)
# Outline: as §1
# J82 (Bladder Carcinoma) = test system: J82 (Bladder Carcinoma)
# Outline: as §1
# [7] = test system: KARPAS-620 (Plasma Cell Myeloma)
# Outline: as §1
# [8] = test system: KATOIII (Gastric Carcinoma)
# Outline: as §1
# [9] = test system: LU-99A (Non-Small Cell Lung Carcinoma)
# Outline: as §1
# [10] = test system: MDA-MB-231 (Breast Carcinoma)
# Outline: as §1
# [11] = test system: NCI-H1793 (Lung Adenocarcinoma)
# Outline: as §1
# [12] = test system: SNU-C5 (Colorectal Carcinoma)
# Outline: as §1
# [13] = test system: SW1088 (Low Grade Glioma)
# Outline: as §1
# [14] = test system: SW1990 (Pancreatic Carcinoma)
# Outline: as §1
# [15] = test system: SW756 (Cervical Carcinoma)
# Outline: as §1
# [16] = test system: TGBC24TKB (Biliary Tract Carcinoma)
# Outline: as §1
# [17] = test system: U-266 (Plasma Cell Myeloma)
# Outline: as §1
SMILES,Bliss excess (CAL-78 (Chondrosarcoma)),Bliss excess [1],Bliss excess [2],Bliss excess [3],Bliss excess [4],Bliss excess [5],Bliss excess [6],Bliss excess (IGR-1 (Melanoma)),Bliss excess (J82 (Bladder Carcinoma)),Bliss excess [7],Bliss excess [8],Bliss excess [9],Bliss excess [10],Bliss excess [11],Bliss excess [12],Bliss excess [13],Bliss excess [14],Bliss excess [15],Bliss excess [16],Bliss excess [17]
"CN(CCO)CC[C@H](CSc1ccccc1)Nc1ccc(S(=O)(=O)NC(=O)c2ccc(N3CCC([C@@H](O)c4ccccc4-c4ccc(Cl)cc4)CC3)cc2)cc1S(=O)(=O)C(F)(F)F [AZD4320] + C1CN(CCC1(C(=O)N[C@@H](CCO)C2=CC=C(C=C2)Cl)N)C3=NC=NC4=C3C=CN4 [Capivasertib] (first compound max 1 µM, 7x7, partner max 3 µM)",-0.0482,-0.0527,-0.0254,-0.0203,-0.0365,0.0191,-0.0331,-0.0557,-0.031,0.0032,-0.0385,-0.0693,-0.0517,-0.0106,-0.067,0.0242,-0.049,-0.0506,0.0015,-0.0061
"CN(CCO)CC[C@H](CSc1ccccc1)Nc1ccc(S(=O)(=O)NC(=O)c2ccc(N3CCC([C@@H](O)c4ccccc4-c4ccc(Cl)cc4)CC3)cc2)cc1S(=O)(=O)C(F)(F)F [AZD4320] + C=CCn1c(=O)c2cnc(Nc3ccc(N4CCN(C)CC4)cc3)nc2n1-c1cccc(C(C)(C)O)n1 [AZD1775] (first compound max 1 µM, partner max 1 µM)",0.073,-0.0373,-0.006,0.0519,-0.0115,-0.0386,0.0055,0.146,-0.107,-0.0125,-0.043,0.0007,0.0551,-0.0061,-0.0062,0.0064,0.0307,-0.0225,-0.0323,0.1
"CN(CCO)CC[C@H](CSc1ccccc1)Nc1ccc(S(=O)(=O)NC(=O)c2ccc(N3CCC([C@@H](O)c4ccccc4-c4ccc(Cl)cc4)CC3)cc2)cc1S(=O)(=O)C(F)(F)F [AZD4320] + CCN(CCO)CCCOc1ccc2c(Nc3cc(CC(=O)Nc4cccc(F)c4)[nH]n3)ncnc2c1 [AZD2811] (first compound max 1 µM, 7x7, partner max 1 µM)",0.117,-0.0754,-0.0343,0.0522,0.0053,0.0907,-0.0074,0.148,-0.0304,0.0899,-0.0434,0.0564,0.0602,-0.0421,0.0121,-0.0659,-0.0214,-0.0334,0.0337,0.113
"CN(CCO)CC[C@H](CSc1ccccc1)Nc1ccc(S(=O)(=O)NC(=O)c2ccc(N3CCC([C@@H](O)c4ccccc4-c4ccc(Cl)cc4)CC3)cc2)cc1S(=O)(=O)C(F)(F)F [AZD4320] + CN(C)CCCOc1ccc(-c2ccc3ncc4c(c3c2)n(C2CCOCC2)c(=O)n4C)cn1 [AZD0156] (first compound max 1 µM, 7x7, partner max 1 µM)",-0.004,-0.0354,-0.0231,0.0046,-0.0055,0.009,-0.0238,-0.0149,-0.0464,0.0092,-0.034,-0.006,0.0319,-0.027,0.0125,-0.033,-0.0411,-0.0362,0.0025,0.0462
"CN(CCO)CC[C@H](CSc1ccccc1)Nc1ccc(S(=O)(=O)NC(=O)c2ccc(N3CCC([C@@H](O)c4ccccc4-c4ccc(Cl)cc4)CC3)cc2)cc1S(=O)(=O)C(F)(F)F [AZD4320] + C[C@@H]1COCCN1C2=NC(=NC(=C2)C3(CC3)[S@](=N)(=O)C)C4=C5C=CNC5=NC=C4 [AZD6738] (first compound max 1 µM, 7x7, partner max 10 µM)",0.0071,-0.0077,-0.0468,-0.0234,-0.0498,0.0014,-0.0073,0.0464,-0.0144,-0.0028,-0.0397,-0.0464,-0.0571,-0.0272,-0.0131,-0.0732,0.0112,-0.0658,-0.0245,-0.0133
"CN(CCO)CC[C@H](CSc1ccccc1)Nc1ccc(S(=O)(=O)NC(=O)c2ccc(N3CCC([C@@H](O)c4ccccc4-c4ccc(Cl)cc4)CC3)cc2)cc1S(=O)(=O)C(F)(F)F [AZD4320] + C[C@@H](Nc1cc(F)cc(F)c1)c1cc(C(=O)N(C)C)cc2c(=O)cc(N3CCOCC3)oc12 [AZD8186] (first compound max 1 µM, 7x7, partner max 3 µM)",0.0323,0.0585,-0.0063,0.0256,0.0326,0.0774,0.0097,0.0019,-0.0061,0.0147,-0.0856,-0.0296,0.0174,0.0516,-0.0704,0.0357,0.0048,-0.0213,0.0011,-0.0077
